The target in experiment [1] is T1, PARP1 (Homo sapiens, UniProt P09874).
T1 construct: purchased BPS Bioscience 80580
Put plainly: PARP1 enzymatic inhibition assay (PARP1 Colorimetric Assay Kit). It is filed as biochemical. How it is done: (§1) Briefly, the 1× histone mixture was added to each well and incubated overnight at 4 °C. Each well was washed three times with 200 µL 1× TBST buffer and filled with 200 µL Blocking buffer at room temperature for 90 min. Then, each well was filled with 25 µL of PARP master mixture (5 μL activated DNA + 2.5 μL 10× PARP Assay mixture + 2.5 μL 10× PARP buffer + 15 μL distilled water). Next, 5 µL of the compound of different concentrations was added to each well, and PARP enzyme was added and incubated at room temperature for 1 h. Next, streptavidin HRP solution was added and incubated at room temperature for 30 min. After adding 100 µL of colorimetric HRP substrate to each well, the plate was incubated until a blue color developed in the positive well, which contained PARP enzyme without inhibitors. The reaction was then quenched with 2 M sulfuric acid, and absorbance at 450 nm was measured using a microplate reader (BioTek, Winooski, VT, USA). After calculating the inhibition rate, the IC50 value was determined.

In experiment [2] the target is T2, PARP2 (Homo sapiens, UniProt Q9UGN5).
T2 construct: purchased BPS Bioscience 80581
T2 sequence (Q9UGN5 whole entry): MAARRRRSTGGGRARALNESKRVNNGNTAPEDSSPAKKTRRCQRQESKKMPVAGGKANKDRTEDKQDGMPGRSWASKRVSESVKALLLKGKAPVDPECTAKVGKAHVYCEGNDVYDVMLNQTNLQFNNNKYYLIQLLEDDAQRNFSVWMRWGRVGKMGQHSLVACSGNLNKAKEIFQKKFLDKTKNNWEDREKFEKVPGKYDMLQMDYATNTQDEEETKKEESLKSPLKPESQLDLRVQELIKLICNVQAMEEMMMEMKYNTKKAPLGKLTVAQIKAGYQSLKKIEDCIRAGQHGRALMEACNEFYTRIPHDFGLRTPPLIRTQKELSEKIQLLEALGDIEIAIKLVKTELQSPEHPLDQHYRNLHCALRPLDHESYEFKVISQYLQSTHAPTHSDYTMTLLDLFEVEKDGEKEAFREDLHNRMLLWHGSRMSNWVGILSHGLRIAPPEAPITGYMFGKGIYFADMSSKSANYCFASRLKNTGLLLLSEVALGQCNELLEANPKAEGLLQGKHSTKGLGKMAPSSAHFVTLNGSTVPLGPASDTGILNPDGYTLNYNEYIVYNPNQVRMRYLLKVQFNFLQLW
Briefly: PARP2 enzymatic inhibition assay (PARP2 Colorimetric Assay Kit). It is filed as biochemical. How it is done: as §1

For experiment [3], the target named is T3, recombinant HDAC1 (Homo sapiens, UniProt Q13547).
T3 construct: purchased Active Motif
T3 sequence (Q13547 whole entry): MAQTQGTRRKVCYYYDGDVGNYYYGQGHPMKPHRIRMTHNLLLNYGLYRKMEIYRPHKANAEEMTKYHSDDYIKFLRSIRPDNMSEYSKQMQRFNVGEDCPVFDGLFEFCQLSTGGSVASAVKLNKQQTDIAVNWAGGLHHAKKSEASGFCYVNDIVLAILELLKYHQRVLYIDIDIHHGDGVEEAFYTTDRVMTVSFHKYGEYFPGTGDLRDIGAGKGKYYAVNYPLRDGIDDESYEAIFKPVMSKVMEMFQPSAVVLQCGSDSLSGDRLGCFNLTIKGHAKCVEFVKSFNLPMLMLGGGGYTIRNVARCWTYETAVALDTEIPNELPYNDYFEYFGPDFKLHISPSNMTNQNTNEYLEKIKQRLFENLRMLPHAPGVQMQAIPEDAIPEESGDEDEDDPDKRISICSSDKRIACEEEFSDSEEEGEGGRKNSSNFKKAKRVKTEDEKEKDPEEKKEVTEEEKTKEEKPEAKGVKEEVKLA
Put plainly: HDAC1 inhibition assay (Ac-peptide-AMC fluorescence). It is filed as biochemical. How it is done: (§2) The in vitro HDAC inhibition assays were carried out by Sundia MediTech Co. Ltd. in Shanghai, China. […] Reactions were stopped with trypsin, and the samples were incubated for another 90 min at 37 °C. […] IC50 values were obtained using GraphPad Prism software.

For experiment [4], the target named is T4, recombinant HDAC6 (Homo sapiens, UniProt Q9UBN7).
T4 construct: purchased BPS Bioscience
T4 sequence (Q9UBN7 1-1215): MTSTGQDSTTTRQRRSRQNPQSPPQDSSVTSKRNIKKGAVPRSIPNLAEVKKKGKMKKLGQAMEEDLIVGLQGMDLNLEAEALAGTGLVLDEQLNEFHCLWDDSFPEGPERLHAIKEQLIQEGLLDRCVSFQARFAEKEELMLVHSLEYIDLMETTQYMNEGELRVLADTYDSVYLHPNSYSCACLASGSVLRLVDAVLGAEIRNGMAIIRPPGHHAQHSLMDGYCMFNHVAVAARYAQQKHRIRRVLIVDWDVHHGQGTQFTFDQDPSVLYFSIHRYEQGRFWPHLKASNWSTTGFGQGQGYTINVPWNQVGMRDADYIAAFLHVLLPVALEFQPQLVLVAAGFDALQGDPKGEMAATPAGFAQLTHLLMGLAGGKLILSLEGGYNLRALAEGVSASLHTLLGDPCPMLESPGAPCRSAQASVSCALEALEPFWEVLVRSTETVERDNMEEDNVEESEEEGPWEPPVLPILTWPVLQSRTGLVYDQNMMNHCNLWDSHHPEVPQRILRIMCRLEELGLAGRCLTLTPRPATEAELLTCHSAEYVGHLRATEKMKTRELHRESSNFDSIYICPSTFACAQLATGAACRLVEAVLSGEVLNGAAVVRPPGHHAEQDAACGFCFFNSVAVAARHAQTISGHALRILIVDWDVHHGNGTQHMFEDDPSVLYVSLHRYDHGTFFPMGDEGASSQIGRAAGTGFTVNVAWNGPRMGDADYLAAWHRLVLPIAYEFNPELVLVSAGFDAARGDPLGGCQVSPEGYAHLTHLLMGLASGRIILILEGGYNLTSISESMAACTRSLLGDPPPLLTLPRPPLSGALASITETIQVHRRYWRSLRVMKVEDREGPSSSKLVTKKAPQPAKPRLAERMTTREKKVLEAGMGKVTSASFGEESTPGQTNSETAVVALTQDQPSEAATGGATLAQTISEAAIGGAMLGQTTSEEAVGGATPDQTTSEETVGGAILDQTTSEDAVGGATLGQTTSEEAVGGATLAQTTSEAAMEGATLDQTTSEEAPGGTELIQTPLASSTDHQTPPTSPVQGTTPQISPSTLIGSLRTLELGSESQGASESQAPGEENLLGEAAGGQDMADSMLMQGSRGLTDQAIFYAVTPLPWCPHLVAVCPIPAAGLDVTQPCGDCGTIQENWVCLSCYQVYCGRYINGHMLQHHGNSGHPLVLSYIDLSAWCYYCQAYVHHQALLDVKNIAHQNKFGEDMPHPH
Put plainly: HDAC6 inhibition assay (Ac-peptide-AMC fluorescence). The class given is biochemical. How it is done: as §2

In experiment [5] the test system is MDA-MB-436, MDA-MB-231, and MDA-MB-468 cells. Put plainly: Colony formation assay. Particulars: approximately 14 days. The class given is cell-based, human. How it is done:
MDA-MB-231, MDA-MB-436 and MDA-MB-468 cells were seeded at a density of 2,000 cells in 6-well plates and cultured overnight. […] The cells were fixed with 4% paraformaldehyde (Merck) for 1 h at room temperature and stained with 0.1% crystal violet (Beyotime Biotechnology) for 30 min. Under an inverted phase contrast microscope (Leica Microsystems, Heidelberg, Germany), cell colonies were photographed at 5× magnification. All these analyses were performed at least three times.

The test system of experiment [6] is MCF-10A cells. Briefly: MTT cell viability assay, MCF-10A. Particulars: Homo sapiens, 72 h, read-out: IC50 MCF-10A. (In general: Formazan colour is commonly taken as a measure of viable cells.)
Method: The viability assay was measured by a 3-(4,5-dimethylthiazol-2-yl)−2,5-diphenyltetrazolium bromide (MTT) assay.
In brief, cells were seeded at a density of 6,000 cells in 96-well plates and cultured overnight. […] After aspiration of the medium, the formazan crystals were dissolved in 100 μL of DMSO. The absorbance at 490 nm was measured using a microplate reader (BioTek). All these analyses were performed at least three times.

T1 sequence (P09874 whole entry): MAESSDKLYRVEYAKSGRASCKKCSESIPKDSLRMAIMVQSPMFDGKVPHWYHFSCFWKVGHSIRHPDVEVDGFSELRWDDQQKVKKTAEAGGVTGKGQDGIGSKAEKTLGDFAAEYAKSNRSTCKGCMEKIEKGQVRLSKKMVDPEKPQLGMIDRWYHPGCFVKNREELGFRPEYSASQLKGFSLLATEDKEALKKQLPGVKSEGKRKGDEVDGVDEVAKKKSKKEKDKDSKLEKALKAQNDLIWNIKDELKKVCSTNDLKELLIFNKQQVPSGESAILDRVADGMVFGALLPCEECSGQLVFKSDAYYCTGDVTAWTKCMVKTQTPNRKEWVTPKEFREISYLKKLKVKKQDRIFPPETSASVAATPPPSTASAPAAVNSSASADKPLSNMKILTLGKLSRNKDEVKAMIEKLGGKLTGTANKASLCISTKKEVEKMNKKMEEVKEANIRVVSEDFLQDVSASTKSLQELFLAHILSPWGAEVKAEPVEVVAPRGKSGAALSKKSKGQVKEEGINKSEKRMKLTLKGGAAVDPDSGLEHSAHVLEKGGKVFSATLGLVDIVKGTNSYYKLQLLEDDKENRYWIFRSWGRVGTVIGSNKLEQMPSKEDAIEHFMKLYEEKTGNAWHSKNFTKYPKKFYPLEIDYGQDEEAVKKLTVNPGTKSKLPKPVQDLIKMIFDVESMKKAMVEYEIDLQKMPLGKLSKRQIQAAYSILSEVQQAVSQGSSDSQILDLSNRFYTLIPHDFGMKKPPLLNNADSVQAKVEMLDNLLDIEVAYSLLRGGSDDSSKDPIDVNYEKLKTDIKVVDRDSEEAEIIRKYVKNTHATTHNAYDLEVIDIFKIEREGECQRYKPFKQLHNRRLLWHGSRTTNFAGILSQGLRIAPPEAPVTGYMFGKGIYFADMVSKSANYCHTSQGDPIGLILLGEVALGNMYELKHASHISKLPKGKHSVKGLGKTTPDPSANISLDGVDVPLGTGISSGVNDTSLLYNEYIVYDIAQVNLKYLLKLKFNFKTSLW

Take `Nc1cc(F)ccc1NC(=O)/C=C/c1ccc(CN2CCN(C(=O)c3cc(Cc4n[nH]c(=O)c5ccccc45)ccc3F)CC2)cc1` [Compound B102]: the IC50 – broadly, the concentration that gives 50% inhibition – in experiment [1] was 19 nM; in experiment [2], 2.13 nM; in experiment [3], 1690 nM; in experiment [4], above 10 µM; in experiment [6], 13.7 ± 0.23 µM. The “colony formation of TNBC cells” value in experiment [5] is reported as “reduction in colony formation”.
For `Nc1cc(F)ccc1NC(=O)CCc1ccc(CN2CCN(C(=O)c3cc(Cc4n[nH]c(=O)c5ccccc45)ccc3F)CC2)cc1` [Compound B302], the IC50 was 12.7 nM in experiment [1]; 57 nM in experiment [2]; above 10000 nM in experiment [3]; above 10 µM in experiment [4]; 36.8 ± 6.59 µM in experiment [6]. For the same compound, in experiment [5], the “colony formation of TNBC cells” value is given as “reduction in colony formation”.

The values above are taken from article PMC10770036, “Novel dual inhibitors of PARP and HDAC induce intratumoral STING-mediated antitumor immunity in triple-negative breast cancer” (Cell Death & Disease, 2024).
